Assay results as given in patent publication US6852673B2, “Herbicidal pyridine compounds” (BASF Aktiengesellschaft, priority 1998, dated 2005).

Experiments:
Assay type in all cases: in vivo
[1] = test system: Alopecurus myosuroides (ALOMY); assay: Pre-emergence herbicidal evaluation, black grass
From the text: (§1) The pre-emergence herbicidal activity of the compounds of the present invention is exemplified by the following test in which the seeds of a variety of monocotyledonous and dicotyledonous plants are seperately mixed with potting soil and planted on top of approximately one inch of soil in separate pots. After planting, the pots are sprayed with the selected aqueous acetone solution containing test compound in sufficient quantity to provide the equivalent of about 0.0125 to 0.4 kg per hectare of test compound per pot. The treated pots are then placed on greenhouse benches, watered and cared for in accordance with conventional greenhouse procedures. From 2 to 4 weeks after treatment, the tests are terminated and each pot is examined and rated according to the rating system set forth below.

[2] = test system: Abutilon theophrasti (ABUTH); assay: Post-emergence herbicidal evaluation, velvetleaf; conditions: rated 2 to 4 weeks after treatment
Description: (§2) [table] [table] […] These acetone solutions are diluted with water and the resulting formulations applied at dosage levels equivalent of about 0.03 to 0.4 kg per hectare of test compound per pot. After spraying the plants are placed on greenhouse benches and are cared for in the usual manner, commensurate with conventional greenhouse practices. From 2 to 4 weeks after treatment, the seedling plants are examined and rated according to the rating system provided above. A rating 0 indicates growth as untreated control, a rating 9 indicates death.

[3] = test system: Triticum aestivum (TRZAW); assay: Pre-emergence herbicidal evaluation, winter wheat
From the text: as §1

[4] = test system: Oryza sativum (ORYSA); assay: Pre-emergence herbicidal evaluation, rice
From the text: as §1

[5] = test system: Setaria viridis (SETVI); assay: Post-emergence herbicidal evaluation, green foxtail; conditions: for SETVI rating: rated 2 to 4 weeks after treatment
Description: as §2

[6] = test system: Solanum nigrum (SOLNI); assay: Post-emergence herbicidal evaluation, black nightshade; conditions: rated 2 to 4 weeks after treatment
Description: as §2

[7] = test system: Triticum aestivum (TRZAW); assay: Post-emergence herbicidal evaluation, winter wheat; conditions: rated 2 to 4 weeks after treatment
Description: as §2

[8] = test system: Glycine max (GLXMA); assay: Pre-emergence herbicidal evaluation, soyabeans
From the text: as §1

[9] = test system: Oryza sativum (ORYSA); assay: Post-emergence herbicidal evaluation, rice; conditions: rated 2 to 4 weeks after treatment
Description: as §2

[10] = test system: Ipomoea hederacea (IPOHE); assay: Post-emergence herbicidal evaluation, morning glory; conditions: rated 2 to 4 weeks after treatment
Description: as §2

[11] = test system: Abutilon theophrasti (ABUTH); assay: Pre-emergence herbicidal evaluation, velvetleaf
From the text: as §1

[12] = test system: Matricaria inodora (MATIN); assay: Pre-emergence herbicidal evaluation, mayweed
From the text: as §1

[13] = test system: Galium aparine (GALAP); assay: Post-emergence herbicidal evaluation, cleaver; conditions: rated 2 to 4 weeks after treatment
Description: as §2

[14] = test system: Lamium purpureum (LAMPU); assay: Pre-emergence herbicidal evaluation, purple deadnettle
From the text: as §1

[15] = test system: Stellaria media (STEME); assay: Pre-emergence herbicidal evaluation, chickweed
From the text: as §1

[16] = test system: Ambrosia artemiisifolia (AMBEL); assay: Pre-emergence herbicidal evaluation, ragweed
From the text: as §1

[17] = test system: Ambrosia artemiisifolia (AMBEL); assay: Post-emergence herbicidal evaluation, ragweed; conditions: rated 2 to 4 weeks after treatment
Description: as §2

[18] = test system: Hordeum vulgare (HORVW); assay: Post-emergence herbicidal evaluation, winter barley; conditions: rated 2 to 4 weeks after treatment
Description: as §2

[19] = test system: Lamium purpureum (LAMPU); assay: Post-emergence herbicidal evaluation, purple deadnettle; conditions: rated 2 to 4 weeks after treatment
Description: as §2

[20] = test system: Zea mays (ZEAMX); assay: Post-emergence herbicidal evaluation, maize; conditions: rated 2 to 4 weeks after treatment
Description: as §2

[21] = test system: Solanum nigrum (SOLNI); assay: Pre-emergence herbicidal evaluation, black nightshade
From the text: as §1

[22] = test system: Galium aparine (GALAP); assay: Pre-emergence herbicidal evaluation, cleaver
From the text: as §1

[23] = test system: Setaria viridis (SETVI); assay: Pre-emergence herbicidal evaluation, green foxtail
From the text: as §1

[24] = test system: Alopecurus myosuroides (ALOMY); assay: Post-emergence herbicidal evaluation, black grass; conditions: rated 2 to 4 weeks after treatment
Description: as §2

[25] = test system: Matricaria inodora (MATIN); assay: Post-emergence herbicidal evaluation, mayweed; conditions: rated 2 to 4 weeks after treatment
Description: as §2

SMILES: Cc1cc(OCC(F)(F)C(F)F)nc(Oc2cc(C(F)(F)F)nn2C)c1 [Example 6]
- ALOMY rating ([1]; dose 0.013 kg/ha): 1 (1 - Trace effect)
- ALOMY rating ([1]; dose 0.025 kg/ha): 3 (3 - Moderate effect)
- ALOMY rating ([1]; dose 0.1 kg/ha): 9 (9 - Complete kill)
- ALOMY rating ([1]; dose 0.4 kg/ha): 9 (9 - Complete kill)
- ABUTH rating ([2]; dose 0.1 kg/ha): 4 (4 - Injury)
- ABUTH rating ([2]; dose 0.25 kg/ha): 2 (2 - Slight effect)
- ABUTH rating ([2]; dose 0.4 kg/ha): 6 (6 - Herbicidal effect)
- TRZAW rating ([3]; dose 0.013 kg/ha): 0 (0 - No effect)
- TRZAW rating ([3]; dose 0.025 kg/ha): 0 (0 - No effect)
- TRZAW rating ([3]; dose 0.1 kg/ha): 1 (1 - Trace effect)
- TRZAW rating ([3]; dose 0.4 kg/ha): 2 (2 - Slight effect)
- ORYSA rating ([4]; dose 0.013 kg/ha): 0 (0 - No effect)
- ORYSA rating ([4]; dose 0.025 kg/ha): 0 (0 - No effect)
- ORYSA rating ([4]; dose 0.1 kg/ha): 1 (1 - Trace effect)
- ORYSA rating ([4]; dose 0.4 kg/ha): 2 (2 - Slight effect)
- SETVI rating ([5]; dose 0.1 kg/ha): 3 (3 - Moderate effect)
- SETVI rating ([5]; dose 0.25 kg/ha): 2 (2 - Slight effect)
- SETVI rating ([5]; dose 0.4 kg/ha): 6 (6 - Herbicidal effect)
- grass control such as Setaria virides ([5]; in barley at crop selective doses): effective
- SOLNI rating ([6]; dose 0.1 kg/ha): 2 (2 - Slight effect)
- SOLNI rating ([6]; dose 0.25 kg/ha): 1 (1 - Trace effect)
- SOLNI rating ([6]; dose 0.4 kg/ha): 4 (4 - Injury)
- TRZAW rating ([7]; dose 0.1 kg/ha): 2 (2 - Slight effect)
- TRZAW rating ([7]; dose 0.25 kg/ha): 1 (1 - Trace effect)
- TRZAW rating ([7]; dose 0.4 kg/ha): 3 (3 - Moderate effect)
- GLXMA rating ([8]; dose 0.013 kg/ha): 0 (0 - No effect)
- GLXMA rating ([8]; dose 0.025 kg/ha): 2 (2 - Slight effect)
- GLXMA rating ([8]; dose 0.1 kg/ha): 3 (3 - Moderate effect)
- GLXMA rating ([8]; dose 0.4 kg/ha): 5 (5 - Definite injury)
- ORYSA rating ([9]; dose 0.1 kg/ha): 1 (1 - Trace effect)
- ORYSA rating ([9]; dose 0.25 kg/ha): 1 (1 - Trace effect)
- ORYSA rating ([9]; dose 0.4 kg/ha): 1 (1 - Trace effect)
- IPOHE rating ([10]; dose 0.1 kg/ha): 8 (8 - Approaching complete kill)
- IPOHE rating ([10]; dose 0.25 kg/ha): 7 (7 - Good herbicidal effect)
- IPOHE rating ([10]; dose 0.4 kg/ha): 9 (9 - Complete kill)
- ABUTH rating ([11]; dose 0.013 kg/ha): 1 (1 - Trace effect)
- ABUTH rating ([11]; dose 0.025 kg/ha): 2 (2 - Slight effect)
- ABUTH rating ([11]; dose 0.1 kg/ha): 3 (3 - Moderate effect)
- ABUTH rating ([11]; dose 0.4 kg/ha): 9 (9 - Complete kill)
- MATIN rating ([12]; dose 0.1 kg/ha): 9 (9 - Complete kill)
- MATIN rating ([12]; dose 0.4 kg/ha): 9 (9 - Complete kill)
- GALAP rating ([13]; dose 0.1 kg/ha): 6 (6 - Herbicidal effect)
- GALAP rating ([13]; dose 0.25 kg/ha): 3 (3 - Moderate effect)
- GALAP rating ([13]; dose 0.4 kg/ha): 7 (7 - Good herbicidal effect)
- LAMPU rating ([14]; dose 0.013 kg/ha): 7 (7 - Good herbicidal effect)
- LAMPU rating ([14]; dose 0.025 kg/ha): 7 (7 - Good herbicidal effect)
- LAMPU rating ([14]; dose 0.1 kg/ha): 9 (9 - Complete kill)
- LAMPU rating ([14]; dose 0.4 kg/ha): 9 (9 - Complete kill)
- STEME rating ([15]; dose 0.1 kg/ha): 9 (9 - Complete kill)
- STEME rating ([15]; dose 0.4 kg/ha): 9 (9 - Complete kill)
- AMBEL rating ([16]; dose 0.013 kg/ha): 1 (1 - Trace effect)
- AMBEL rating ([16]; dose 0.025 kg/ha): 1 (1 - Trace effect)
- AMBEL rating ([16]; dose 0.1 kg/ha): 9 (9 - Complete kill)
- AMBEL rating ([16]; dose 0.4 kg/ha): 9 (9 - Complete kill)
- AMBEL rating ([17]; dose 0.1 kg/ha): 4 (4 - Injury)
- AMBEL rating ([17]; dose 0.25 kg/ha): 3 (3 - Moderate effect)
- AMBEL rating ([17]; dose 0.4 kg/ha): 6 (6 - Herbicidal effect)
- HORVW rating ([18]; dose 0.1 kg/ha): 2 (2 - Slight effect)
- HORVW rating ([18]; dose 0.25 kg/ha): 1 (1 - Trace effect)
- HORVW rating ([18]; dose 0.4 kg/ha): 3 (3 - Moderate effect)
- LAMPU rating ([19]; dose 0.1 kg/ha): 6 (6 - Herbicidal effect)
- LAMPU rating ([19]; dose 0.25 kg/ha): 4 (4 - Injury)
- LAMPU rating ([19]; dose 0.4 kg/ha): 7 (7 - Good herbicidal effect)
- ZEAMX rating ([20]; dose 0.1 kg/ha): 2 (2 - Slight effect)
- ZEAMX rating ([20]; dose 0.25 kg/ha): 1 (1 - Trace effect)
- ZEAMX rating ([20]; dose 0.4 kg/ha): 5 (5 - Definite injury)
- SOLNI rating ([21]; dose 0.013 kg/ha): 4 (4 - Injury)
- SOLNI rating ([21]; dose 0.025 kg/ha): 4 (4 - Injury)
- SOLNI rating ([21]; dose 0.1 kg/ha): 8 (8 - Approaching complete kill)
- SOLNI rating ([21]; dose 0.4 kg/ha): 9 (9 - Complete kill)
- GALAP rating ([22]; dose 0.013 kg/ha): 1 (1 - Trace effect)
- GALAP rating ([22]; dose 0.025 kg/ha): 1 (1 - Trace effect)
- GALAP rating ([22]; dose 0.1 kg/ha): 5 (5 - Definite injury)
- GALAP rating ([22]; dose 0.4 kg/ha): 8 (8 - Approaching complete kill)
- SETVI rating ([23]; dose 0.013 kg/ha): 4 (4 - Injury)
- SETVI rating ([23]; dose 0.025 kg/ha): 6 (6 - Herbicidal effect)
- SETVI rating ([23]; dose 0.1 kg/ha): 8 (8 - Approaching complete kill)
- SETVI rating ([23]; dose 0.4 kg/ha): 9 (9 - Complete kill)
- ALOMY rating ([24]; dose 0.1 kg/ha): 6 (6 - Herbicidal effect)
- ALOMY rating ([24]; dose 0.25 kg/ha): 2 (2 - Slight effect)
- ALOMY rating ([24]; dose 0.4 kg/ha): 8 (8 - Approaching complete kill)
- MATIN rating ([25]; dose 0.1 kg/ha): 6 (6 - Herbicidal effect)
- MATIN rating ([25]; dose 0.25 kg/ha): 4 (4 - Injury)
- MATIN rating ([25]; dose 0.4 kg/ha): 6 (6 - Herbicidal effect)
